Patent US7772180B2, “Hepatitis C virus inhibitors” (Bristol-Myers Squibb Company, priority 2006, dated 2010)
Like-named read-outs stand apart in the source and are kept apart here.

Experiments:
[1] = target: T1, HCV NS3/4A protease complex, BMS strain (UniProt P27958, species not given/STRAIN_BMS); assay: FRET peptide assay to monitor HCV NS3/4A proteolytic activity (BMS strain); type: biochemical, Hepatitis C virus (genotype 1a)
T1 construct: other: NS3/4A BMS strain; activity range class; numeric values, unit not given; said of H77 and J4L6S; fused on or other part: A three-lysine solubilising tail at the C-terminus of NS4A; A His tag is implied by the pET21b vector and Ni-NTA purification; Both are printed for the H77 and J4L6S constructs and apply to BMS by inference
T1 sequence (P27958 1027-1657, change not shown, one chain of several): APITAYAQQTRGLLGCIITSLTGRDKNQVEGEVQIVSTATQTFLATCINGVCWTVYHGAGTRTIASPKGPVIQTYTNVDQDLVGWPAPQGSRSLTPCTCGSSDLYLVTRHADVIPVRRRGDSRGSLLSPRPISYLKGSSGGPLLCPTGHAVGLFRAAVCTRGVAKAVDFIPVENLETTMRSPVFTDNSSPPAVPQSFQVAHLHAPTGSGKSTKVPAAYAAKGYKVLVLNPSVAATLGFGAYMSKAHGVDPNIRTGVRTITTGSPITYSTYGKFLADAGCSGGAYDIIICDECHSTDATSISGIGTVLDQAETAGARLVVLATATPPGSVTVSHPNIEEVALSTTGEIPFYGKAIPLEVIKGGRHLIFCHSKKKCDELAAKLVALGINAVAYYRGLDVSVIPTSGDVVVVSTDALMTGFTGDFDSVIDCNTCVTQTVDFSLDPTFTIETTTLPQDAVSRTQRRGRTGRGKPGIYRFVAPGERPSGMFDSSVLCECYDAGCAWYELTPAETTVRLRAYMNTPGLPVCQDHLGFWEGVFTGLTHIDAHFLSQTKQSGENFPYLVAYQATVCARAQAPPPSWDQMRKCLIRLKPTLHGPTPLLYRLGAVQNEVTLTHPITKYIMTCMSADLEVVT
Procedure, shortened: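 Purified recombinant NS3/4A complex from genotype 1a BMS strain, 2-3 nM final, with RET S1 EDANS/DABCYL depsipeptide substrate at 2 μM final in HEPES pH 7.5, NaCl, Triton, glycerol, βME. Cleavage followed in real time by fluorescence. For high-potency compounds: 50 μg/ml BSA added, protease lowered to 300 pM.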

[2] = tested on: HCV replicon (strain 1b) in HUH-7 cells; assay: HCV replicon FRET assay; type: cell-based, Hepatitis C virus
[3] = read-out: HCV Protease (IC50); NS3/4A BMS strain; activity range class
[4] = Hepatitis C virus, Huh-7, read-out: HCV Pro Replicon (EC50), HCV replicon cell assay, activity range class
[5] = read-out: HCV Pro Replicon (EC50), HCV replicon cell assay, activity range class
[6] = read-out: HCV Protease (IC50); NS3/4A BMS strain; numeric values, unit inferred
[7] = Hepatitis C virus, Huh-7, read-out: HCV Pro Replicon (EC50), HCV replicon cell assay, numeric values, unit inferred

Compound: C=C[C@@H]1C[C@]1(NC(=O)[C@@H]1C[C@@H](Oc2ncc(OC)c3ccc(Cl)cc23)CN1C(=O)[C@@H](Nc1cccc(C(N)=O)c1)C(C)(C)C)C(=O)NS(=O)(=O)C1CC1 [217 first isomer, N-(3-carbamoylphenyl)-3-methyl-L-valyl-(4R)-4-((7-chloro-4-methoxy-1-isoquinolinyl)oxy)-N-((1R,2S)-1-((cyclopropylsulfonyl)carbamoyl)-2-vinylcyclopropyl)-L-prolinamide]
- IC50 [1, 3]: 0.6 to 20 nM
- EC50 [2, 4]: 3 to 100 nM

Compound: C=C[C@@H]1C[C@]1(NC(=O)[C@@H]1C[C@@H](Oc2ncc(OC)c3ccc(Cl)cc23)CN1C(=O)[C@@H](Nc1cccc(C(=O)NC(C)(C)C)c1)C(C)(C)C)C(=O)NS(=O)(=O)C1CC1 [212 first isomer, N-(3-(tert-butylcarbamoyl)phenyl)-3-methyl-L-valyl-(4R)-4-((7-chloro-4-methoxy-1-isoquinolinyl)oxy)-N-((1R,2S)-1-((cyclopropylsulfonyl)carbamoyl)-2-vinylcyclopropyl)-L-prolinamide]
- IC50 [1, 3]: > 200 nM
- EC50 [2, 4]: 100 to 1000 nM

Compound: C=C[C@@H]1C[C@]1(NC(=O)[C@@H]1C[C@@H](Oc2ncc(OC)c3ccc(Cl)cc23)CN1C(=O)C(Nc1cc(C)cc(C)n1)C(C)(C)C)C(=O)NS(=O)(=O)C1CC1 (single isomer, unassigned) [22 second isomer]
- IC50 [1, 3]: 0.6 to 20 nM
- EC50 [2, 5]: 100 to 1000 nM

Compound: C=C[C@@H]1C[C@]1(NC(=O)[C@@H]1C[C@@H](Oc2ncc(OC)c3ccc(Cl)cc23)CN1C(=O)C(Nc1ccc(OC)nc1)C(C)(C)C)C(=O)NS(=O)(=O)C1CC1 (single isomer, unassigned) [408 first isomer]
- IC50 [1, 3]: 0.6 to 20 nM
- EC50 [2, 5]: 3 to 100 nM

Compound: C=C[C@@H]1C[C@]1(NC(=O)[C@@H]1C[C@@H](Oc2ncc(OC)c3ccc(Cl)cc23)CN1C(=O)[C@@H](Nc1cccc(C(=O)NC(C)(C)c2ccccc2)c1)C(C)(C)C)C(=O)NS(=O)(=O)C1CC1 (single isomer, unassigned; isomer 3) [216 first isomer]
- IC50 ([1]; NS3/4A BMS strain; activity range class; read-out: HCV Protease (IC50)): 0.6 to 20 nM
- EC50 ([2]; HCV replicon cell assay, activity range class, read-out: HCV Pro Replicon (EC50)): 3 to 100 nM

Compound: C=C[C@@H]1C[C@]1(NC(=O)[C@@H]1C[C@@H](Oc2nc3c(c4cc(OC)ccc24)OCCN3C)CN1C(=O)[C@H](Nc1ccc(F)c(F)c1)C(C)(C)C)C(=O)NS(=O)(=O)C1CC1 [235 second isomer, N-(3,4-difluorophenyl)-3-methyl-D-valyl-(4R)—N-((1R,2S)-1-((cyclopropylsulfonyl)carbamoyl)-2-vinylcyclopropyl)-4-((9-methoxy-4-methyl-3,4-dihydro-2H-[1,4]oxazino[3,2-c]isoquinolin-6-yl)oxy)-L-prolinamide]
- IC50 [1, 3]: 0.6 to 20 nM
- EC50 [2, 4]: 3 to 100 nM

Compound: C=C[C@@H]1C[C@]1(NC(=O)[C@@H]1C[C@@H](Oc2ncc(OC)c3ccc(Cl)cc23)CN1C(=O)[C@@H](Nc1cccc(S(=O)(=O)NC(C)(C)C)c1)C(C)(C)C)C(=O)NS(=O)(=O)C1CC1 [206 first isomer, N-(3-(tert-butylsulfamoyl)phenyl)-3-methyl-L-valyl-(4R)-4-((7-chloro-4-methoxy-1-isoquinolinyl)oxy)-N-((1R,2S)-1-((cyclopropylsulfonyl)carbamoyl)-2-vinylcyclopropyl)-L-prolinamide]
- IC50 [1, 3]: 0.6 to 20 nM
- EC50 [2, 4]: 3 to 100 nM

Compound: C=C[C@@H]1C[C@]1(NC(=O)[C@@H]1C[C@@H](Oc2ncc(OC)c3ccc(Cl)cc23)CN1C(=O)[C@@H](Nc1cccc(C(=O)O)c1)C(C)(C)C)C(=O)NS(=O)(=O)C1CC1 [211 first isomer, N-(3-carboxyphenyl)-3-methyl-L-valyl-(4R)-4-((7-chloro-4-methoxy-1-isoquinolinyl)oxy)-N-((1R,2S)-1-((cyclopropylsulfonyl)carbamoyl)-2-vinylcyclopropyl)-L-prolinamide]
- IC50 [1, 3]: 0.6 to 20 nM
- EC50 [2, 4]: 3 to 100 nM

Compound: C=C[C@@H]1C[C@]1(NC(=O)[C@@H]1C[C@@H](Oc2ncc(OC)c3ccc(Cl)cc23)CN1C(=O)C(C)Nc1nsnc1OCC)C(=O)NS(=O)(=O)C1CC1 (stereo partly shown) [Compound 239]
- IC50 [1, 3]: > 200 nM
- EC50 [2, 4]: 100 to 1000 nM

Compound: C=C[C@@H]1C[C@]1(NC(=O)[C@@H]1C[C@@H](Oc2nc(N(C)C)cc3cc(OC)ccc23)CN1C(=O)C(Nc1ccccc1)C(C)(C)C)C(=O)NS(=O)(=O)C1CC1 (single isomer, unassigned) [Compound 19B]
- IC50 [1, 6]: 1000 nM
- EC50 [2, 7]: 1850 nM

Compound: C=C[C@@H]1C[C@]1(NC(=O)[C@@H]1C[C@@H](Oc2nccc3cc(OC)ccc23)CN1C(=O)[C@@H](Nc1ccccc1)C(C)(C)C)C(=O)NS(=O)(=O)C1CC1 [15 first isomer, 3-methyl-N-phenyl-L-valyl-(4R)—N-((1R,2S)-1-((cyclopropylsulfonyl)carbamoyl)-2-vinylcyclopropyl)-4-((6-methoxy-1-isoquinolinyl)oxy)-L-prolinamide]
- IC50 [1, 3]: 0.6 to 20 nM
- EC50 [2, 4]: 3 to 100 nM

Compound: C=C[C@@H]1C[C@]1(NC(=O)[C@@H]1C[C@@H](Oc2nc(OC)cc3cc(OC)ccc23)CN1C(=O)C(Nc1ccccc1)C(C)(C)C)C(=O)NS(=O)(=O)C1CC1 (single isomer, unassigned) [20 second isomer]
- IC50 [1, 3]: 20 to 200 nM
- EC50 [2, 5]: 100 to 1000 nM

Compound: C=C[C@@H]1C[C@]1(NC(=O)[C@@H]1C[C@@H](Oc2ncc(OC)c3ccc(Cl)cc23)CN1C(=O)C(Nc1cc(C)nc(C)c1)C(C)(C)C)C(=O)NS(=O)(=O)C1CC1 (single isomer, unassigned) [Compound 29B]
- IC50 [1, 6]: 249 nM
- EC50 [2, 7]: 14900 nM

Compound: C=CCCCCCC(Nc1ccc(OC)nc1)C(=O)N1C[C@H](Oc2ncc(OC)c3ccc(Cl)cc23)C[C@H]1C(=O)N[C@]1(C(=O)NS(=O)(=O)C2CC2)C[C@H]1C=C (stereo partly shown) [Compound 410]
- IC50 [1, 3]: > 200 nM
- EC50 [2, 5]: 3 to 100 nM

Compound: C=C[C@@H]1C[C@]1(NC(=O)[C@@H]1C[C@@H](Oc2nccc3cc(OC)ccc23)CN1C(=O)[C@H](Nc1ccccn1)C(C)(C)C)C(=O)NS(=O)(=O)C1CC1 [12 second isomer, 3-methyl-N-2-pyridinyl-D-valyl-(4R)—N-((1R,2S)-1-((cyclopropylsulfonyl)carbamoyl)-2-vinylcyclopropyl)-4-((6-methoxy-1-isoquinolinyl)oxy)-L-prolinamide]
- IC50 [1, 3]: 20 to 200 nM
- EC50 [2, 4]: 100 to 1000 nM

Compound: C=C[C@@H]1C[C@]1(NC(=O)[C@@H]1C[C@@H](Oc2ncc(OC)c3ccc(Cl)cc23)CN1C(=O)C(Nc1cncc(C(F)(F)F)c1)C(C)(C)C)C(=O)NS(=O)(=O)C1CC1 (single isomer, unassigned) [27 second isomer]
- IC50 [1, 3]: 20 to 200 nM
- EC50 [2, 4]: 3 to 100 nM

Compound: C=C[C@@H]1C[C@]1(NC(=O)[C@@H]1C[C@@H](Oc2ncc(OC)c3ccc(Cl)cc23)CN1C(=O)[C@@H](Nc1ccc(C(N)=O)cc1)C(C)(C)C)C(=O)NS(=O)(=O)C1CC1 [226 first isomer, N-(4-carbamoylphenyl)-3-methyl-L-valyl-(4R)-4-((7-chloro-4-methoxy-1-isoquinolinyl)oxy)-N-((1R,2S)-1-((cyclopropylsulfonyl)carbamoyl)-2-vinylcyclopropyl)-L-prolinamide]
- IC50 [1, 3]: 0.6 to 20 nM
- EC50 [2, 4]: 3 to 100 nM

Compound: C=C[C@@H]1C[C@]1(NC(=O)[C@@H]1C[C@@H](Oc2ncc(OC)c3ccc(Cl)cc23)CN1C(=O)[C@@H](Nc1ccccc1F)C(C)(C)C)C(=O)NS(=O)(=O)C1CC1 [234 first isomer, N-(2-fluorophenyl)-3-methyl-L-valyl-(4R)-4-[(7-chloro-4-methoxy-1-isoquinolinyl)oxy]-N-((1R,2S)-1-{[(cyclopropylsulfonyl)amino]carbonyl}-2-vinylcyclopropyl)-L-prolinamide]
- IC50 [1, 3]: 20 to 200 nM
- EC50 [2, 4]: 100 to 1000 nM

Compound: C=C[C@@H]1C[C@]1(NC(=O)[C@@H]1C[C@@H](Oc2ncc(OC)c3ccc(Cl)cc23)CN1C(=O)C(Nc1cccc(OC)c1)C(C)(C)C)C(=O)NS(=O)(=O)C1CC1 (single isomer, unassigned) [Compound 201A]
- IC50 [1, 6]: 4 nM
- EC50 [2, 7]: 4.23 nM

Compound: C=C[C@@H]1C[C@]1(NC(=O)[C@@H]1C[C@@H](Oc2nccc3cc(OC)ccc23)CN1C(=O)C(Nc1cc(C)cc(C)n1)C(C)C)C(=O)NS(=O)(=O)N(C)C (single isomer, unassigned) [Compound 16]
- IC50 [1, 3]: 0.6 to 20 nM
- EC50 [2, 4]: 3 to 100 nM

Compound: (4R)-4-((7-chloro-4-methoxy-1-isoquinolinyl)oxy)-N-((1R,2S)-1-((cyclopropylsulfonyl)carbamoyl)-2-vinylcyclopropyl)-1-((2R)-2-((4-ethoxy-1,2,5-thiadiazol-3-yl)amino)butanoyl)-L-prolinamide [Compound 233B]
- IC50 ([1]; NS3/4A BMS strain; numeric values, unit inferred; read-out: HCV Protease (IC50)): 1300 nM
- EC50 ([2]; HCV replicon cell assay, numeric values, unit inferred, read-out: HCV Pro Replicon (EC50)): 2630 nM

Compound: C=C[C@@H]1C[C@]1(NC(=O)[C@@H]1C[C@@H](Oc2nccc3cc(OC)ccc23)CN1C(=O)[C@@H](Nc1cccnc1)C(C)(C)C)C(=O)NS(=O)(=O)C1CC1 [13 first isomer, 3-methyl-N-3-pyridinyl-L-valyl-(4R)—N-((1R,2S)-1-((cyclopropylsulfonyl)carbamoyl)-2-vinylcyclopropyl)-4-((6-methoxy-1-isoquinolinyl)oxy)-L-prolinamide]
- IC50 [1, 3]: 20 to 200 nM
- EC50 [2, 4]: 3 to 100 nM

Compound: C=C[C@@H]1C[C@]1(NC(=O)[C@@H]1C[C@@H](Oc2nccc3cc(OC)ccc23)CN1C(=O)C(Nc1ccc(OC)nc1)C(C)(C)C)C(=O)NS(=O)(=O)C1CC1 (single isomer, unassigned) [407 second isomer]
- IC50 [1, 3]: 0.6 to 20 nM
- EC50 [2, 5]: 100 to 1000 nM
